Reference: US8680272B2, “3-arylethynyl substituted quinazolinone compounds” (Council of Scientific & Industrial Research, priority 2011, dated 2014)

Key:
HS 578T = experiment: Anticancer activity, SRB assay, breast cell line HS 578T; assay type: cell-based, human; conditions: Homo sapiens; Breast HS 578T; 48 h continuous drug exposure; —^b means GI50 values not attained at the concentrations used; read-out: Growth Inhibition GI50
Experimental: (§1) Some of biological activity studies were carried out at the National Cancer Institute (NCI), Maryland, USA.
(§2) The compounds were evaluated for anticancer activity against sixty human cancer cells derived from nine cancer types (leukemia cell line, non-small-cell lung cell line, colon cell line, CNS cell line, melanoma cell line, ovarian cell line, prostate cell line, renal cell line and breast cancer cell line) as shown in Table 1. For each compound, dose response curves for each cell line were measured at a minimum of five concentrations at 10 fold dilutions. A protocol of 48 h continuous drug exposure was used and a sulforhodamine B (SRB) protein assay was used to estimate cell viability or growth.

[1] = tested on: nine melanoma cancer cell line (LOX IMVI, MALME-3M, M14, MDA-MB-435, SK-MEL-2, SK-MEL-28, SK-MEL-5, UACC-257 and UACC-62); experiment: Anticancer activity, SRB assay, melanoma panel; assay type: cell-based, human; conditions: Melanoma
Experimental: as §1, §2

[2] = Anticancer activity, SRB assay, melanoma panel; assay type: cell-based, human; conditions: Homo sapiens; nine melanoma cancer cell line; exposure period of at least 48 h; read-out: GI50 (range over the panel)
Experimental: as §1, §2

NCI/ADR-RES = experiment: Anticancer activity, SRB assay, ovarian cell line NCI/ADR-RES; assay type: cell-based, human; conditions: Homo sapiens, NCI/ADR-RES; Ovarian NCl/ADR-RES; 48 h continuous drug exposure; —^b means GI50 values not attained at the concentrations used; read-out: Growth Inhibition GI50
Experimental: as §1, §2

MOLT-4 = experiment: Anticancer activity, SRB assay, leukemia cell line MOLT-4; assay type: cell-based; conditions: Homo sapiens; Leukemia MOLT-4; 48 h continuous drug exposure; read-out: Growth Inhibition GI50
Experimental: as §1, §2

NCI-H460 = experiment: Anticancer activity, SRB assay, non-small lung cell line NCI-H460; assay type: cell-based; conditions: Homo sapiens, Non-small lung NCl-H460, 48 h continuous drug exposure, read-out: Growth Inhibition GI50
Experimental: as §1, §2

NCI-H322M = experiment: Anticancer activity, SRB assay, non-small lung cell line NCI-H322M; assay type: cell-based, human; conditions: Homo sapiens, NCI-H322M; Non-small lung NCl-H322M; 48 h continuous drug exposure; —^b means GI50 values not attained at the concentrations used; read-out: Growth Inhibition GI50
Experimental: as §1, §2

SF-295 = experiment: Anticancer activity, SRB assay, CNS cell line SF-295; assay type: cell-based, human; conditions: Homo sapiens; CNS SF-295; 48 h continuous drug exposure; —^b means GI50 values not attained at the concentrations used; read-out: Growth Inhibition GI50
Experimental: as §1, §2

MDA-MB-231/ATCC = experiment: Anticancer activity, SRB assay, breast cell line MDA-MB-231/ATCC; assay type: cell-based; conditions: Homo sapiens; Breast MDA-MB-231/ATCC; 48 h continuous drug exposure; read-out: Growth Inhibition GI50
Experimental: as §1, §2

OVCAR-3 = experiment: Anticancer activity, SRB assay, ovarian cell line OVCAR-3; assay type: cell-based; conditions: Homo sapiens; Ovarian OVCAR-3; 48 h continuous drug exposure; read-out: Growth Inhibition GI50
Experimental: as §1, §2

SR = experiment: Anticancer activity, SRB assay, leukemia cell line SR; assay type: cell-based; conditions: Homo sapiens, 48 h continuous drug exposure, read-out: Growth Inhibition GI50
Experimental: as §1, §2

[3] = tested on: six CNS cancer cell line (SF-268, SF-295, SF-539, SNB-19, SNB-75 and U251); experiment: Anticancer activity, SRB assay, CNS panel; assay type: cell-based, human
Experimental: as §1, §2

A498 = experiment: Anticancer activity, SRB assay, renal cell line A498; assay type: cell-based, human; conditions: Homo sapiens, 48 h continuous drug exposure, —^b means GI50 values not attained at the concentrations used, read-out: Growth Inhibition GI50
Experimental: as §1, §2

[4] = tested on: sixty human cancer cell lines derived from nine cancer types; experiment: Anticancer activity against sixty human cancer cell lines; assay type: cell-based
Experimental: as §1, §2

SK-MEL-5 = experiment: Anticancer activity, SRB assay, melanoma cell line SK-MEL-5; assay type: cell-based; conditions: Homo sapiens; Melanoma SK-MEL-5; 48 h continuous drug exposure; read-out: Growth Inhibition GI50
Experimental: as §1, §2

UACC-62 = experiment: Anticancer activity, SRB assay, melanoma cell line UACC-62; assay type: cell-based; conditions: Homo sapiens; Melanoma UACC-62; 48 h continuous drug exposure; read-out: Growth Inhibition GI50
Experimental: as §1, §2

NCI-H226 = experiment: Anticancer activity, SRB assay, non-small lung cell line NCI-H226; assay type: cell-based, human; conditions: Homo sapiens, NCI-H226; Non-small lung NCl-H226; 48 h continuous drug exposure; —^b means GI50 values not attained at the concentrations used; read-out: Growth Inhibition GI50
Experimental: as §1, §2

OVCAR-5 = experiment: Anticancer activity, SRB assay, ovarian cell line OVCAR-5; assay type: cell-based, human; conditions: Homo sapiens; Ovarian OVCAR-5; 48 h continuous drug exposure; —^b means GI50 values not attained at the concentrations used; read-out: Growth Inhibition GI50
Experimental: as §1, §2

OVCAR-4 = experiment: Anticancer activity, SRB assay, ovarian cell line OVCAR-4; assay type: cell-based, human; conditions: Homo sapiens; Ovarian OVCAR-4; 48 h continuous drug exposure; —^b means GI50 values not attained at the concentrations used; read-out: Growth Inhibition GI50
Experimental: as §1, §2

NCI-H23 = experiment: Anticancer activity, SRB assay, non-small lung cell line NCI-H23; assay type: cell-based; conditions: Homo sapiens, Non-small lung NCl-H23, 48 h continuous drug exposure, read-out: Growth Inhibition GI50
Experimental: as §1, §2

MCF7 = experiment: Anticancer activity, SRB assay, breast cell line MCF7; assay type: cell-based; conditions: Homo sapiens, 48 h continuous drug exposure, read-out: Growth Inhibition GI50
Experimental: as §1, §2

HT29 = experiment: Anticancer activity, SRB assay, colon cell line HT29; assay type: cell-based; conditions: Homo sapiens, HT-29, 48 h continuous drug exposure, read-out: Growth Inhibition GI50
Experimental: as §1, §2

HOP-92 = experiment: Anticancer activity, SRB assay, non-small lung cell line HOP-92; assay type: cell-based, human; conditions: Homo sapiens; Non-small lung HOP-92; 48 h continuous drug exposure; —^b means GI50 values not attained at the concentrations used; read-out: Growth Inhibition GI50
Experimental: as §1, §2

[5] = tested on: seven colon cancer cell line (COLO 205, HCC-2998, HCT-116, HCT-15, HT29, KM12 and SW-620); experiment: Anticancer activity, SRB assay, colon panel; assay type: cell-based, human
Experimental: as §1, §2

SK-OV-3 = experiment: Anticancer activity, SRB assay, ovarian cell line SK-OV-3; assay type: cell-based, human; conditions: Homo sapiens; Ovarian SK-OV-3; 48 h continuous drug exposure; —^b means GI50 values not attained at the concentrations used; read-out: Growth Inhibition GI50
Experimental: as §1, §2

DU-145 = experiment: Anticancer activity, SRB assay, prostate cell line DU-145; assay type: cell-based, human; conditions: Homo sapiens; Prostate DU-145; 48 h continuous drug exposure; —^b means GI50 values not attained at the concentrations used; read-out: Growth Inhibition GI50
Experimental: as §1, §2

KM12 = experiment: Anticancer activity, SRB assay, colon cell line KM12; assay type: cell-based; conditions: Homo sapiens, 48 h continuous drug exposure, read-out: Growth Inhibition GI50
Experimental: as §1, §2

In the case of `Cc1cc(C#Cc2ccccc2)ccc1-n1c(/C=C/c2ccc(O)cc2)nc2ccccc2c1=O` [Compound 4b, (E)-2-(4-Hydroxystyryl)-3-(2-methyl-4-(phenylethynyl)phenyl)quinazolin-4(3H)-one], the GI50 (HS 578T) is reported as 2480 nM, the “mean graph midpoint values (MG_MID) of log10 TGI (Log10TGI50)” value (from here on “mean graph midpoint values … (Log10TGI50)”) ([1]; log value of concentration of the compound resulting in total inhibition of net cell growth) is reported as −4.79 and the “mean graph midpoint values (MG_MID) of Log10LC50” value ([1]; log value of the concentration of compounds leading to 50% net cell death) is reported as −4.16. The “mean graph midpoint values (MG_MID) of Log10GI50” value ([1]; log values of concentration in mol/L causing 50% inhibition of net cell growth) was −5.54 mol/L, the GI50 [2] was 1.77 to 4.54 µM and the GI50 (NCI/ADR-RES) was 3.09 µM. It also gave a GI50 (MOLT-4) of 2360 nM, a GI50 (NCI-H460) of 2220 nM and a GI50 (NCI-H322M) of 2930 nM. The GI50 (SF-295) was 2850 nM, the GI50 (MDA-MB-231/ATCC) was 3.89 µM and the GI50 (OVCAR-3) was 3.6 µM. For the same compound, the GI50 (SR) was 2450 nM, the “mean graph midpoint values … (Log10TGI50)” value ([3]; CNS, log value of concentration of the compound resulting in total inhibition of net cell growth) was −4.21 and the “mean graph midpoint values (MG_MID) of Log10LC50” value ([3]; CNS, log value of the concentration of compounds leading to 50% net cell death) was greater than −4.00. For the same compound, the “mean graph midpoint values (MG_MID) of Log10GI50” value ([3]; CNS, log values of concentration in mol/L causing 50% inhibition of net cell growth) was −5.35 mol/L, the GI50 ([3]; Homo sapiens, six CNS cancer cell line, exposure period of at least 48 h, read-out: GI50 (range over the panel)) was 2.85 to 6.91 µM and the GI50 (A498) was 1560 nM. The “in vitro anticancer activity (in words)” value [4] was “exhibiting an in vitro anticancer activity”, the GI50 (SK-MEL-5) was 1770 nM and the GI50 (UACC-62) was 3.48 µM. For the same compound, the GI50 (NCI-H226) was 3.99 µM, the GI50 (OVCAR-5) was 4.59 µM and the GI50 (OVCAR-4) was 3.17 µM. For the same compound, the GI50 (NCI-H23) was 3.62 µM, the GI50 (MCF7) was 2720 nM and the GI50 (HT29) was 3.33 µM. The GI50 (HOP-92) was 2500 nM, the “mean graph midpoint values … (Log10TGI50)” value ([5]; Colon, log value of concentration of the compound resulting in total inhibition of net cell growth) was −4.83 and the “mean graph midpoint values (MG_MID) of Log10LC50” value ([5]; Colon, log value of the concentration of compounds leading to 50% net cell death) was −4.15. The “mean graph midpoint values (MG_MID) of Log10GI50” value ([5]; Colon, log values of concentration in mol/L causing 50% inhibition of net cell growth) was −5.55 mol/L, the GI50 ([5]; Homo sapiens, seven colon cancer cell line, exposure period of at least 48 h, read-out: GI50 (range over the panel)) was 1.99 to 4.08 µM and the GI50 (SK-OV-3) was 9.91 µM. It also gave a GI50 (DU-145) of 4.87 µM and a GI50 (KM12) of 3.24 µM.
